Measured values reported in patent publication US20170233413A1, “SUBSTITUTED ANNULATED PYRIMIDINES AND USE THEREOF” (Bayer Pharma Aktiengesellschaft, priority 2014, published 2017).

What was measured:
[1] = biological target: T1, recombinant guanylate cyclase reporter cell line (Rattus norvegicus, UniProt P19686+P20595); experiment: Effect on a recombinant guanylate cyclase reporter cell line; type: cell-based; conditions: MEC = minimum effective concentration; in some cases means of individual determinations
T1 construct: expressed in transfected cells
T1 sequence (P19686 1-690): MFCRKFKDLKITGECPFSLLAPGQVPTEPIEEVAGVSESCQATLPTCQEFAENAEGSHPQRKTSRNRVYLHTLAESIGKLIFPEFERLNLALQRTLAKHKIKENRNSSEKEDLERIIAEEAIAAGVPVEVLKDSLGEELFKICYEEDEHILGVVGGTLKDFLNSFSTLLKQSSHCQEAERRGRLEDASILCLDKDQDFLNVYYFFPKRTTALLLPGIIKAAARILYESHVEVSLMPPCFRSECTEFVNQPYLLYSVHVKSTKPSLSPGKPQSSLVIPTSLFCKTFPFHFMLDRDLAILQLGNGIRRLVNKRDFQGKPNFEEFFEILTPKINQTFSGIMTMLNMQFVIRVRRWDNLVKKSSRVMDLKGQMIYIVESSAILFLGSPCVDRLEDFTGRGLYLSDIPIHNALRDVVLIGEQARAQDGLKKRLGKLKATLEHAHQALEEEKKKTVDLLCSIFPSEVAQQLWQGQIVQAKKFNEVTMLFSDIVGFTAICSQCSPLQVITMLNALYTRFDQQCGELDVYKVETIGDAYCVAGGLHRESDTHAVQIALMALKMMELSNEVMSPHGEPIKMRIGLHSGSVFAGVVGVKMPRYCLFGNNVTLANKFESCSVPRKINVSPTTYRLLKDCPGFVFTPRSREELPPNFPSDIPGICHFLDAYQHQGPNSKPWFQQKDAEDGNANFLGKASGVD
T1 sequence (P20595 1-619): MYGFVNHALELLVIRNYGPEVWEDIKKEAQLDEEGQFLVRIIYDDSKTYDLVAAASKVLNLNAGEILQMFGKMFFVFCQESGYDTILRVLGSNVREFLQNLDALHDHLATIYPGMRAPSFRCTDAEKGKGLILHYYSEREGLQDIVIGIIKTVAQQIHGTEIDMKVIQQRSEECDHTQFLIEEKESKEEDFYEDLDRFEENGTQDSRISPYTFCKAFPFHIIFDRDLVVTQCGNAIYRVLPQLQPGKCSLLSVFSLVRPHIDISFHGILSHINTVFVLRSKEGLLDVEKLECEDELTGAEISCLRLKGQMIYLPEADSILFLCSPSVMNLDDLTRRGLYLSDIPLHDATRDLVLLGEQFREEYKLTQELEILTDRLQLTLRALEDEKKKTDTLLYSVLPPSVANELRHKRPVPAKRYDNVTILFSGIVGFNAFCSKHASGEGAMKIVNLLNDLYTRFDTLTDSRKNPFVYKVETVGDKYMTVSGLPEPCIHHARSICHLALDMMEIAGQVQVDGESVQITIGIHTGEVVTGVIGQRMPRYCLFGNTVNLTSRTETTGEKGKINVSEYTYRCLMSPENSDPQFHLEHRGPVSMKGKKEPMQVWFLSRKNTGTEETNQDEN
Summary of the method: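 Values are reported as MEC, sometimes averaged over individual determinations. The test system is a reporter cell line expressing recombinant rat guanylate cyclase.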

[2] = biological target: T2, human phosphodiesterase 5 (PDE 5) (Homo sapiens, UniProt O76074); experiment: Inhibition of human phosphodiesterase 5 (PDE 5); type: biochemical; conditions: PDE 5 preparation from human platelets; in some cases means of individual determinations
T2 construct: PDE 5 preparations are obtained from human platelets by disruption; from tissue; host or cells: human platelets
Summary of the method: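 IC50 comes from percent inhibition over a 1:3 series with final levels of 4 to 0.0018 μM. Reaction: tritiated cGMP tracer (0.025 μCi) with platelet-derived, Mono Q-purified enzyme, 1 h at room temperature in Tris pH 7.5, under 70% turnover. Read-out by scintillation proximity beads.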

| Compound | MEC [1] [µM] | IC50 [2] [nM] |
| --- | --- | --- |
| CC1(C)C(=O)Nc2nc(-c3nn(Cc4ccccc4F)c4ncccc34)nc(C(=O)NCCF)c21 [Example 83, 2-[1-(2-fluorobenzyl)-1H-pyrazolo[3,4-b]pyridin-3-yl]-N-(2-fluoroethyl)-5,5-dimethyl-6-oxo-6,7-dihydro-5H-pyrrolo[2,3-d]pyrimidine-4-carboxamide] | 0.1 | 13 |
| CC1(C)C(=O)Nc2nc(-c3nn(Cc4ccccc4F)c4ncccc34)nc(C(=O)NCC3CC3)c21 [Example 84, N-(cyclopropylmethyl)-2-[1-(2-fluorobenzyl)-1H-pyrazolo[3,4-b]pyridin-3-yl]-5,5-dimethyl-6-oxo-6,7-dihydro-5H-pyrrolo[2,3-d]pyrimidine-4-carboxamide] | 0.1 | 23 |
| CC(C)=CCNC(=O)c1nc(-c2nn(Cc3ccccc3F)c3ncccc23)nc2c1C(C)(C)C(=O)N2 [Example 85, 2-[1-(2-fluorobenzyl)-1H-pyrazolo[3,4-b]pyridin-3-yl]-5,5-dimethyl-N-(3-methylbut-2-en-1-yl)-6-oxo-6,7-dihydro-5H-pyrrolo[2,3-d]pyrimidine-4-carboxamide] | 0.1 | 38 |
| CNC(=O)c1nc(-c2nn(Cc3ccccc3F)c3ncccc23)nc2c1C(C)(C)C(=O)N2 [Example 86, 2-[1-(2-fluorobenzyl)-1H-pyrazolo[3,4-b]pyridin-3-yl]-N,5,5-trimethyl-6-oxo-6,7-dihydro-5H-pyrrolo[2,3-d]pyrimidine-4-carboxamide] | 0.1 | 44 |
| CC1(C)C(=O)Nc2nc(-c3nn(Cc4ccccc4F)c4ncccc34)nc(C(=O)Nc3cc[nH]n3)c21 [Example 87, 2-[1-(2-fluorobenzyl)-1H-pyrazolo[3,4-b]pyridin-3-yl]-5,5-dimethyl-6-oxo-N-(1H-pyrazol-3-yl)-6,7-dihydro-5H-pyrrolo[2,3-d]pyrimidine-4-carboxamide] | 0.3 | 24 |
| CC1(C)C(=O)Nc2nc(-c3nn(Cc4ccccc4F)c4ncccc34)nc(C(=O)Nc3cccnc3)c21 [Example 89, 2-[1-(2-fluorobenzyl)-1H-pyrazolo[3,4-b]pyridin-3-yl]-5,5-dimethyl-6-oxo-N-(pyridin-3-yl)-6,7-dihydro-5H-pyrrolo[2,3-d]pyrimidine-4-carboxamide] | 0.3 | 9 |
| COCCCNC(=O)c1nc(-c2nn(Cc3ccccc3F)c3ncccc23)nc2c1C(C)(C)C(=O)N2 [Example 90, 2-[1-(2-fluorobenzyl)-1H-pyrazolo[3,4-b]pyridin-3-yl]-N-(3-methoxypropyl)-5,5-dimethyl-6-oxo-6,7-dihydro-5H-pyrrolo[2,3-d]pyrimidine-4-carboxamide] | 0.1 | 14 |
| Cc1ccc(NC(=O)c2nc(-c3nn(Cc4ccccc4F)c4ncccc34)nc3c2C(C)(C)C(=O)N3)cn1 [Example 91, 2-[1-(2-fluorobenzyl)-1H-pyrazolo[3,4-b]pyridin-3-yl]-5,5-dimethyl-N-(6-methylpyridin-3-yl)-6-oxo-6,7-dihydro-5H-pyrrolo[2,3-d]pyrimidine-4-carboxamide] | 0.3 | 68 |
| CC1(C)C(=O)Nc2nc(-c3nn(Cc4ccccc4F)c4ncccc34)nc(C(=O)NCC3CCCC3)c21 [Example 92, N-(cyclopentylmethyl)-2-[1-(2-fluorobenzyl)-1H-pyrazolo[3,4-b]pyridin-3-yl]-5,5-dimethyl-6-oxo-6,7-dihydro-5H-pyrrolo[2,3-d]pyrimidine-4-carboxamide] | 0.3 | 35 |
| CC1(C)C(=O)Nc2nc(-c3nn(Cc4ccccc4F)c4ncccc34)nc(C(=O)Nc3nncs3)c21 [Example 93, 2-[1-(2-fluorobenzyl)-1H-pyrazolo[3,4-b]pyridin-3-yl]-5,5-dimethyl-6-oxo-N-(1,3,4-thiadiazol-2-yl)-6,7-dihydro-5H-pyrrolo[2,3-d]pyrimidine-4-carboxamide] | 0.1 | 55 |
| CC1(C)C(=O)Nc2nc(-c3nn(Cc4ccccc4F)c4ncccc34)nc(C(=O)Nc3nnc[nH]3)c21 [Example 94, 2-[1-(2-fluorobenzyl)-1H-pyrazolo[3,4-b]pyridin-3-yl]-5,5-dimethyl-6-oxo-N-(4H-1,2,4-triazol-3-yl)-6,7-dihydro-5H-pyrrolo[2,3-d]pyrimidine-4-carboxamide] | 0.3 | 16 |
| CC1(C)C(=O)Nc2nc(-c3nn(Cc4ccccc4F)c4ncccc34)nc(C(=O)NCCC(N)=O)c21 [Example 95, N-(3-amino-3-oxopropyl)-2-[1-(2-fluorobenzyl)-1H-pyrazolo[3,4-b]pyridin-3-yl]-5,5-dimethyl-6-oxo-6,7-dihydro-5H-pyrrolo[2,3-d]pyrimidine-4-carboxamide] | 1 | 48 |
| CC1(C)C(=O)Nc2nc(-c3nn(Cc4ccccc4F)c4ncccc34)nc(C(=O)NCCOCC(F)(F)F)c21 [Example 96, 2-[1-(2-fluorobenzyl)-1H-pyrazolo[3,4-b]pyridin-3-yl]-5,5-dimethyl-6-oxo-N-[2-(2,2,2-trifluoroethoxy)ethyl]-6,7-dihydro-5H-pyrrolo[2,3-d]pyrimidine-4-carboxamide] | 0.03 | 62 |
| CC1(NC(=O)c2nc(-c3nn(Cc4ccccc4F)c4ncccc34)nc3c2C(C)(C)C(=O)N3)CCC1 [Example 97, 2-[1-(2-fluorobenzyl)-1H-pyrazolo[3,4-b]pyridin-3-yl]-5,5-dimethyl-N-(1-methylcyclobutyl)-6-oxo-6,7-dihydro-5H-pyrrolo[2,3-d]pyrimidine-4-carboxamide] | 0.3 | 8.2 |
| CC1(C)C(=O)Nc2nc(-c3nn(Cc4ccccc4F)c4ncccc34)nc(C(=O)NC3CCOCC3)c21 [Example 98, 2-[1-(2-fluorobenzyl)-1H-pyrazolo[3,4-b]pyridin-3-yl]-5,5-dimethyl-6-oxo-N-(tetrahydro-2H-pyran-4-yl)-6,7-dihydro-5H-pyrrolo[2,3-d]pyrimidine-4-carboxamide] | 1 | 33 |
| CC1(C)C(=O)Nc2nc(-c3nn(Cc4ccccc4F)c4ncccc34)nc(C(=O)Nc3cn[nH]c3)c21 [Example 100, 2-[1-(2-fluorobenzyl)-1H-pyrazolo[3,4-b]pyridin-3-yl]-5,5-dimethyl-6-oxo-N-(1H-pyrazol-4-yl)-6,7-dihydro-5H-pyrrolo[2,3-d]pyrimidine-4-carboxamide] | 0.3 | 4.3 |
| CC1(CNC(=O)c2nc(-c3nn(Cc4ccccc4F)c4ncccc34)nc3c2C(C)(C)C(=O)N3)COC1 [Example 103, 2-[1-(2-fluorobenzyl)-1H-pyrazolo[3,4-b]pyridin-3-yl]-5,5-dimethyl-N-[(3-methyloxetan-3-yl)methyl]-6-oxo-6,7-dihydro-5H-pyrrolo[2,3-d]pyrimidine-4-carboxamide] | 0.3 | 10 |
| CC1(C)C(=O)Nc2nc(-c3nn(Cc4ccccc4F)c4ncccc34)nc(C(=O)Nc3cncc(F)c3)c21 [Example 107, 2-[1-(2-fluorobenzyl)-1H-pyrazolo[3,4-b]pyridin-3-yl]-N-(5-fluoropyridin-3-yl)-5,5-dimethyl-6-oxo-6,7-dihydro-5H-pyrrolo[2,3-d]pyrimidine-4-carboxamide] | 0.3 | 73 |
